Test results published in patent US11129845B2, “Compositions and methods for the delivery of nucleic acids” (CASE WESTERN RESERVE UNIVERSITY, priority 2014, dated 2021).

Key:
[1] = Zeta-potential of siRNA-lipid complexes (Malvern Zetasizer); assay type: physicochemical
Description: (§1) The cationic lipid carriers are dissolved in ethanol at a stock concentration of 2.5 mM, while all siRNA is reconstituted in nuclease-free water at a 0.25 μg/μL (18.8 μM) concentration. Nanoparticles are formulated by mixing the carriers with siRNA for a period of 30 min in RNase-free phosphate buffer saline (PBS) at pre-specified N/P ratios (N=number of protonable amines in lipid, P=number of phosphate groups in the siRNA). In preparing the lipoplexes, proper dilutions were made such that the volume ratio of ethanol:water was kept constant at 1:20. Minimizing the amount of ethanol is important because it is effective in dissolving lipids, thus inhibiting particle formation. The diameters (as determined by dynamic light scattering) and zeta potentials of all nanoparticles were analyzed using a Malvern Zetasizer instrument at pH=7.4. siRNA encapsulation efficiency was calculated using a RiboGreen fluorescence-based assay from Invitrogen, designed specifically for detection of free RNA at […] wavelengths of 480 and 520 nm, respectively. Nanoparticles were created with all carriers in the library so that final siRNA concentrations were 1.6 μg/mL. A linear standard curve was utilized to calculate the encapsulation efficiencies from signal intensities measured by a SpectraMax microplate reader (Molecular Devices).

[2] = test system: HT29 colon carcinoma cells; test: Cellular uptake of Alexa Fluor 488-siRNA via flow cytometry; assay type: cell-based, human; conditions: HT29, N/P=18, 4 h, 100 nM Alexa Fluor 488-siRNA
Description: Flow cytometry was used to investigate the cellular uptake of our delivery system in HT29 colon carcinoma cells. All carriers in the library were formulated into nanoparticles by condensing Alexa Fluor 488-labeled siRNA at the optimal N/P ratio determined by the above luciferase knockdown studies. Approximately 50,000 cancer cells were seeded in 6-well plates and allowed to grow until 30-50% confluence was reached. The cancer cells were transfected with a 100 nM siRNA dose in serum-free media. After 4 h, the transfection media were aspirated and the cells were washed twice with PBS. The cells were then trypsinized, collected, and fixed with 2% paraformaldehyde in PBS, prior to flow cytometric analysis.

[3] = test system: GFP reporter protein; test: GFP reporter silencing in CHO-GFP cells (flow cytometry); assay type: cell-based, Chinese hamster; conditions: N/P=4, 48 h post-transfection, 100 nM siRNA
Description: The RNAi induced silencing capabilities of each carrier was investigated in both a CHO-GFP non-cancerous cell line and an HT29-Luc (luciferase) human colon cancer cell line. Approximately 50,000 CHO-GFP cells were seeded into 6 well plates. When 25% confluency was achieved, the growth media were replaced with fresh serum free transfection media containing siRNA nanoparticles, at a dose of 100 nM siRNA. Negative controls included cells that were either treated with naked anti-GFP siRNA or with plain serum-free media. N/P ratios of 4, 6, 8, 10, 12, and 14 were tested for each carrier to determine the optimal nanoparticle formulation. […] After 4 h, the media were removed and replaced with fresh complete growth media, and cells were allowed to grow for another 24, 48, or 72 h post-transfection. At each of these time points, the CHO-GFP cells were rinsed twice with PBS, trypsinized, and fixed with 2% paraformaldehyde. […] Cell-Quest software was used to analyze the results and obtain mean fluorescence intensity (MFI) values.
(§2) The RNAi capabilities of each carrier were investigated by analyzing the silencing of a luciferase (Luc) reporter in HT29 cancer cells after anti-Luc siRNA therapy. […] Luciferase expression was determined using a Spectra Max luminometer upon the addition of a light-inducing substrate to the collected protein. […]

[4] = Agarose gel retardation (siRNA loading); assay type: physicochemical
Description: The ability of ECO to complex and condense siRNA was assessed by gel electrophoresis. […] The gel was submerged in 0.5×Tris/Borate/EDTA (TBE) buffer and run at 100 V for 25 minutes. Free siRNA was run as the control. SiRNA bands were visualized using an AlphaImager ultraviolet imaging system (Biosciences). […] Following incubation, samples were loaded onto a 1% agarose gel containing ethidium bromide and run in the same manner as described. […] At each intermittent time point, aliquots were taken and stored at −80° C. After the final aliquot was taken at 24 hours, samples were incubated for 30 minutes with heparin at a heparin/siRNA (w/w) ratio of 5 to release the complexed siRNA cargo and each sample was loaded on the 1% agarose gel and run as described above. Free siRNA was also incubated in 50% serum for 0.5, 1, 6, or 24 hours and stored and run on the gel in a similar manner.

[5] = test system: HT29-Luc cells; test: MTT cytotoxicity in HT29-Luc cells; assay type: cell-based, human
[6] = Nanoparticle diameter and polydispersity by dynamic light scattering (Malvern Zetasizer); assay type: physicochemical; conditions: for Nanoparticle diameter as measured by dynamic light scattering: siRNA-lipid complexes
Description: as §1

[7] = test system: CHO-GFP cells; assay type: cell-based, Chinese hamster
Description: Cytotoxicity of the carriers was investigated using an MTT colorimetric assay measuring cellular metabolic activity (Invitrogen). The transfection procedure was identical to that presented for the reporter knockdown studies above, except for the fact that 96 well plates were utilized instead, and seeded with 10,000 cells per well. After transfection, the cells were allowed to grow for an additional 48 h. At that point, they were incubated with MTT for 4 h, followed by an additional 4 hour incubation with an SDS-HCl solution to dissolve any insoluble formazan crystals formed by the reduction of MTT by NAD(P)H-dependent enzymes in the cells. The absorbance of each sample was measured at 570 nm using a SpectraMax microplate reader. Cellular viability was calculated by averaging the signal intensities over three replicates and then normalizing the results relative to the negative control data.
as §2, with “therapy. To perform this study, we seeded HT29-Luc cells in 12 well plates at a density of 20,000 cells per well.” for “therapy.”

## CCCCCCCC/C=C\CCCCCCCC(=O)N[C@@H](CS)C(=O)NCCNC(=O)CCN(CCN)CCC(=O)NCCNC(=O)[C@H](CS)NC(=O)CCCCCCC/C=C\CCCCCCCC [ECO, (1-aminoethyl)iminobis[N-(oleicylcysteinyl-1-amino-ethyl)propionamide]]
[1]; pH = 7.4, N/P = 2
  Zeta-potential of siRNA-lipid complexes: −32.20 ± 0.90 mV
[1]; pH = 7.4, N/P = 5
  Zeta-potential of siRNA-lipid complexes: −16.84 ± 1.58 mV
[1]; pH = 7.4, N/P = 8
  Zeta-potential of siRNA-lipid complexes: 28.82 ± 1.03 mV
[1]; pH = 7.4, N/P = 10
  Zeta-potential of siRNA-lipid complexes: 25.68 ± 2.02 mV
[1]; pH = 7.4, N/P = 15
  Zeta-potential of siRNA-lipid complexes: 25.19 ± 2.32 mV
[2]
  cellular uptake, mean fluorescence intensity (MFI): 2571±90
[3]
  relative GFP reporter expression: 61.0±5.05%
[4]
  N/P ratio at which complexed siRNA was completely prevented from migrating through the gel: ≥ 14
  N/P ratio at which no siRNA signal was observed in the loading well: ≥ 18
[5]; HT29, N/P=18
  cell viability (MTT): 87.3±2.72%
[5]; HT29, N/P=20
  cell viability (MTT): 51.5±5.87%
[6]; N/P = 2
  Polydispersity of siRNA-lipid complexes: 0.245
  Nanoparticle diameter as measured by dynamic light scattering: 468 ± 43 nm
[6]; N/P = 5
  Polydispersity of siRNA-lipid complexes: 0.200
  Nanoparticle diameter as measured by dynamic light scattering: 448 ± 23 nm
[6]; N/P = 8
  Polydispersity of siRNA-lipid complexes: 0.157
  Nanoparticle diameter as measured by dynamic light scattering: 59 ± 11 nm
[6]; N/P = 10
  Polydispersity of siRNA-lipid complexes: 0.136
  Nanoparticle diameter as measured by dynamic light scattering: 78 ± 12 nm
[6]; N/P = 15
  Polydispersity of siRNA-lipid complexes: 0.005
  Nanoparticle diameter as measured by dynamic light scattering: 42 ± 9 nm
[7]
  cell viability (MTT): greater than 85%
